Test results reported in patent US12029751B2, “Therapeutic agent for nervous system disease” (OSAKA UNIVERSITY, priority 2017, dated 2024).

Tested on: rat sciatic nerve crush injury model
Test: Macrophage phenotypes after sciatic nerve injury (immunohistological evaluation, rat sciatic nerve crush injury model)
Format: in vivo
Set-up: Number of M2 macrophages: unit: per mm^2
Experimental: Effects of methylcobalamin on macrophage phenotypes after sciatic nerve injury were analyzed by an immunohistological evaluation method. Specifically, the analysis was carried out as follows. Using transverse nerve sections at 2.5 mm in the proximal direction, at the injury site, and at 2.5, 5.0, and 7.5 mm in the distal direction, macrophages were evaluated by immunofluorescence staining at 1, 3, 7, and 14 days after sciatic nerve injury. The proximal direction refers to a cell body side of an axon with respect to an injury site, and the distal direction refers to a terminal side of an axon with respect to an injury site. Each of the distances indicates a distance from the injury site (the same applies to Example 8). Macrophages were labeled with CD68, an M1 marker iNOS, and an M2 marker CD206. The proportion of M1 macrophage was calculated by the following formula: Proportion of M1 macrophage (%)=number of M1-marker positive macrophages per mm^2/number of macrophages per mm^2×100. A more detailed description will be provided below.
Six-week-old male Wistar rats (about 200 g) were used. The left sciatic nerve was exteriorized, and crush injury of the sciatic nerve was made on the proximal side by forceps. The nerve was crushed for 10 seconds three times at 10-second intervals. The fascia and skin were sutured using 3-0 nylon. A non-injury group which underwent only sciatic nerve exposure, an untreated group, and a methylcobalamin treatment group were compared. To administer methylcobalamin continuously, an osmotic minipump was placed and left in the dorsal subcutaneous space, and methylcobalamin was administered at a dose of 1 mg/kg/day. In an untreated group, physiological saline was administered instead of methylcobalamin according to the same procedure.
At 1, 3, 7, and 14 days after the surgery, rats were anesthetized with an anesthetic agent. The left sciatic nerve was collected, fixed with 4% PFA for 7 days and with 20% sucrose for 24 hours, and the fixed nerve was freeze-embedded. The embedded tissue was sliced into a 5-μm-thick slice in a nerve short-axis direction and placed on a glass slide. Slices were obtained from 5 positions of 2.5 mm in the proximal direction from an injured region, the injured region, and 2.5, 5.0, and 7.5 mm in the distal direction. The slices were dried for 1 hour and fixed with 95% methanol for 30 minutes. The fixed slices were blocked and allowed to react with primary antibodies at 4° C. overnight. The cells were further allowed to react with a secondary antibody at room temperature for 1 hour so that the nuclei were labeled with DAPI.
The primary antibodies used were a mouse anti-CD68 monoclonal antibody (Abcam), a rabbit anti-iNOS monoclonal antibody (Abcam), a rabbit anti-CD206 monoclonal antibody (Abeam), a rabbit anti-neurofilament 200 (NF 200) polyclonal antibody (SIGMA), and a mouse anti-myelin basic protein (MBP) monoclonal antibody (Calbiochem). The secondary antibodies used were an Alexa 488-labeled goat anti-mouse IgG antibody (Life Technologies), an Alexa 488-labeled goat anti-rabbit IgG antibody (Life Technologies), an Alexa 568-labeled goat anti-mouse IgG antibody (Life Technologies), and an Alexa 568-labeled goat anti-rabbit IgG antibody (Life Technologies).

[1] = POD1, 2.5 mm in the distal direction, 1 mg/kg/day
[2] = POD1, 2.5 mm in the proximal direction, 1 mg/kg/day
[3] = POD1, 5.0 mm in the distal direction, 1 mg/kg/day
[4] = POD1, 7.5 mm in the distal direction, 1 mg/kg/day
[5] = POD3, 2.5 mm in the distal direction, 1 mg/kg/day
[6] = POD3, 2.5 mm in the proximal direction, 1 mg/kg/day
[7] = POD3, 5.0 mm in the distal direction, 1 mg/kg/day
[8] = POD3, 7.5 mm in the distal direction, 1 mg/kg/day
[9] = POD7, 2.5 mm in the distal direction, 1 mg/kg/day
[10] = POD7, 2.5 mm in the proximal direction, 1 mg/kg/day
[11] = POD7, 5.0 mm in the distal direction, 1 mg/kg/day
[12] = POD7, 7.5 mm in the distal direction, 1 mg/kg/day
[13] = POD14, 2.5 mm in the distal direction, 1 mg/kg/day
[14] = POD14, 2.5 mm in the proximal direction, 1 mg/kg/day
[15] = POD14, 5.0 mm in the distal direction, 1 mg/kg/day
[16] = POD14, 7.5 mm in the distal direction, 1 mg/kg/day
[17] = POD14, Injury site, 1 mg/kg/day

## C/C1=C2/[N-][C@H]([C@H](CC(N)=O)[C@@]2(C)CCC(=O)NC[C@@H](C)OP(=O)([O-])O[C@H]2[C@@H](O)[C@@H](n3cnc4cc(C)c(C)cc43)O[C@@H]2CO)[C@]2(C)N=C(/C(C)=C3N=C(/C=C4N=C1[C@@H](CCC(N)=O)C\4(C)C)[C@@H](CCC(N)=O)[C@]\3(C)CC(N)=O)[C@@H](CCC(N)=O)[C@]2(C)CC(N)=O.[CH3-].[Co+3] [MeCbl, methylcobalamin]
POD1, 2.5 mm in the distal direction
  Number of M2 macrophages: 46.53
[1]
  M1 macrophage ratio: 0.183
  M2 macrophage ratio: 0.658
  Number of M1 macrophages: 10.27 per mm^2
  Number of macrophages: 64.37 per mm^2
POD1, 2.5 mm in the proximal direction
  Number of M2 macrophages: 32.72
[2]
  M1 macrophage ratio: 0.095
  M2 macrophage ratio: 0.743
  Number of M1 macrophages: 3.42 per mm^2
  Number of macrophages: 40.53 per mm^2
POD1, 5.0 mm in the distal direction
  Number of M2 macrophages: 33.90
[3]
  M1 macrophage ratio: 0.109
  M2 macrophage ratio: 0.765
  Number of M1 macrophages: 4.40 per mm^2
  Number of macrophages: 43.67 per mm^2
POD1, 7.5 mm in the distal direction
  Number of M2 macrophages: 32.83
[4]
  M1 macrophage ratio: 0.097
  M2 macrophage ratio: 0.777
  Number of M1 macrophages: 3.21 per mm^2
  Number of macrophages: 35.68 per mm^2
POD1, Injury site
  Number of M2 macrophages: 139.28
POD1, Injury site, 1 mg/kg/day
  M1 macrophage ratio: 0.195
  M2 macrophage ratio: 0.431
  Number of M1 macrophages: 63.55 per mm^2
  Number of macrophages: 336.86 per mm^2
POD3, 2.5 mm in the distal direction
  Number of M2 macrophages: 147.74
[5]
  M1 macrophage ratio: 0.165
  M2 macrophage ratio: 0.693
  Number of M1 macrophages: 23.50 per mm^2
  Number of macrophages: 181.38 per mm^2
POD3, 2.5 mm in the proximal direction
  Number of M2 macrophages: 43.76
[6]
  M1 macrophage ratio: 0.068
  M2 macrophage ratio: 0.708
  Number of M1 macrophages: 3.04 per mm^2
  Number of macrophages: 48.52 per mm^2
POD3, 5.0 mm in the distal direction
  Number of M2 macrophages: 117.16
[7]
  M1 macrophage ratio: 0.145
  M2 macrophage ratio: 0.659
  Number of M1 macrophages: 13.13 per mm^2
  Number of macrophages: 135.88 per mm^2
POD3, 7.5 mm in the distal direction
  Number of M2 macrophages: 115.48
[8]
  M1 macrophage ratio: 0.186
  M2 macrophage ratio: 0.694
  Number of M1 macrophages: 15.57 per mm^2
  Number of macrophages: 124.99 per mm^2
POD3, Injury site
  Number of M2 macrophages: 603.12
POD3, Injury site, 1 mg/kg/day
  M1 macrophage ratio: 0.163
  M2 macrophage ratio: 0.479
  Number of M1 macrophages: 198.96 per mm^2
  Number of macrophages: 1261.77 per mm^2
POD3, Injury site, 1 mg/kg/day, listed as methylcobalamin
  Number of macrophages: significantly decreased
POD7, 2.5 mm in the distal direction
  Number of M2 macrophages: 457.16
[9]
  M1 macrophage ratio: 0.043
  M2 macrophage ratio: 0.463
  Number of M1 macrophages: 37.09 per mm^2
  Number of macrophages: 921.92 per mm^2
POD7, 2.5 mm in the proximal direction
  Number of M2 macrophages: 26.25
[10]
  M1 macrophage ratio: 0.049
  M2 macrophage ratio: 0.642
  Number of M1 macrophages: 1.54 per mm^2
  Number of macrophages: 36.63 per mm^2
POD7, 5.0 mm in the distal direction
  Number of M2 macrophages: 432.13
[11]
  M1 macrophage ratio: 0.039
  M2 macrophage ratio: 0.505
  Number of M1 macrophages: 25.29 per mm^2
  Number of macrophages: 763.17 per mm^2
POD7, 7.5 mm in the distal direction
  Number of M2 macrophages: 327.16
[12]
  M1 macrophage ratio: 0.045
  M2 macrophage ratio: 0.506
  Number of M1 macrophages: 22.71 per mm^2
  Number of macrophages: 584.14 per mm^2
POD7, Injury site
  Number of M2 macrophages: 654.63
POD7, Injury site, 1 mg/kg/day
  M1 macrophage ratio: 0.046
  M2 macrophage ratio: 0.571
  Number of M1 macrophages: 47.56 per mm^2
  Number of macrophages: 1096.37 per mm^2
POD7, Injury site, 1 mg/kg/day, listed as methylcobalamin
  Number of macrophages: significantly decreased
POD14, 2.5 mm in the distal direction
  Number of M2 macrophages: 443.91
[13]
  M1 macrophage ratio: 0.033
  M2 macrophage ratio: 0.459
  Number of M1 macrophages: 27.86 per mm^2
  Number of macrophages: 898.81 per mm^2
POD14, 2.5 mm in the proximal direction
  Number of M2 macrophages: 35.65
[14]
  M1 macrophage ratio: 0.039
  M2 macrophage ratio: 0.638
  Number of M1 macrophages: 2.34 per mm^2
  Number of macrophages: 51.79 per mm^2
POD14, 5.0 mm in the distal direction
  Number of M2 macrophages: 434.68
[15]
  M1 macrophage ratio: 0.029
  M2 macrophage ratio: 0.487
  Number of M1 macrophages: 22.35 per mm^2
  Number of macrophages: 827.51 per mm^2
POD14, 7.5 mm in the distal direction
  Number of M2 macrophages: 417.86
[16]
  M1 macrophage ratio: 0.024
  M2 macrophage ratio: 0.487
  Number of M1 macrophages: 15.59 per mm^2
  Number of macrophages: 752.29 per mm^2
POD14, Injury site
  Number of M2 macrophages: 560.45
[17]
  M1 macrophage ratio: 0.025
  M2 macrophage ratio: 0.610
  Number of M1 macrophages: 21.33 per mm^2
  Number of macrophages: 899.57 per mm^2
POD14, Injury site, 1 mg/kg/day, listed as methylcobalamin
  Number of macrophages: significantly decreased
All evaluation days (1, 3, 7, 14 days), 1 mg/kg/day
  numbers of M1 macrophages as compared to the untreated group: significantly decreased
Distal portions, 7 and 14 days after the surgery, 1 mg/kg/day
  numbers of M1 macrophages as compared to the untreated group: significant differences
Distal positions, 14 days after the surgery, 1 mg/kg/day
  number of macrophages as compared to the untreated group: significant difference
Injury site, 1, 7 and 14 days after the surgery, 1 mg/kg/day
  numbers of M2 macrophages as compared to the untreated group: significantly increased
